Experiments:
[1] = isosteric functionality compared with a carboxylic group; cited from earlier work
[2] = target: T1, GABA-AT (Sus scrofa, UniProt P80147); assay: Preliminary substrate activity test with [14C]-labeled α-ketoglutarate; format: biochemical, pig; conditions: for Converted α-KG: incubation time 48 h, GABA-AT 0.7 μM, substrate 2.5 mM, α-KG 2.9 mM; for substrate activity for GABA-AT (in words): preliminary test, 48 h incubation
Text: Tetrazole derivative 5 was the most efficient of the synthesized substrates. The tetrazole group was the best bioisostere for the carboxylic acid group in this series of compounds tested.

[3] = target: T1, GABA-AT; assay: Time-dependent inhibition of GABA-AT (Kitz and Wilson replot); format: biochemical, pig; conditions: for time-dependent inhibition of GABA-AT (in words): 9 and 10 compared with 8 at the same concentration
Method: Aliquots (20 μL) were withdrawn at timed intervals and were added immediately to the assay solution (575 μL) followed by the addition of excess SSDH (5 μL). The reaction rates were measured by a UV-vis spectrophotometer at 340 nm. […] A Kitz and Wilson replot was used to determine the kinetic constants kinact and KI, as referenced above.

[4] = target: T1, GABA-AT; assay: Time-independent inhibition of GABA-AT; format: biochemical, pig; conditions: 1-10 mM inhibitor, 25° C., read-out: estimated IC50
Text: The percentage of remained enzyme activity was obtained by comparison to that of an untreated enzyme control. The logarithm of the percentage of remained activity is plotted versus the concentration of the inhibitors to calculate IC50 values.

[5] = time-dependent inhibition, 25 ° C., pH 8.5

T1 sequence (P80147 29-500): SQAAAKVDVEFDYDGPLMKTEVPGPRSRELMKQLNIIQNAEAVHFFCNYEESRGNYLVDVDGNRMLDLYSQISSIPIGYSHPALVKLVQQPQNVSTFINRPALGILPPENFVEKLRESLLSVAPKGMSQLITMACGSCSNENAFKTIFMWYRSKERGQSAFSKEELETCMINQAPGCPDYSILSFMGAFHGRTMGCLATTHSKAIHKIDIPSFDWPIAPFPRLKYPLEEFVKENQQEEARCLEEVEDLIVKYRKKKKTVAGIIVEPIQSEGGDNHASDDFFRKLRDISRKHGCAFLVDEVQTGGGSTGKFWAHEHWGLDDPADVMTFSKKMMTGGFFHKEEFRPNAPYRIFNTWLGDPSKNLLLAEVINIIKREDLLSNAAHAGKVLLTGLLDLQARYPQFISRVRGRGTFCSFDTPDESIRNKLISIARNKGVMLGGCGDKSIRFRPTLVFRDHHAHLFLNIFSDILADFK

SMILES	Converted α-KG [2]	substrate activity for GABA-AT (in words) [2]	time-dependent inhibition of GABA-AT (in words) [3]	also measured
COC(=O)NC(=O)CCN [Compound 2, Methyl β-alanylcarbamate]	1.3%	substrates for GABA-AT	–	pKa [1]: ~8
CS(=O)(=O)NC(=O)CCN [Compound 3, Methyl b-alanylsulfonamide]	6.4%	substrates for GABA-AT	–	pKa [1]: comparable to that of a carboxylic acid
NCc1ccc2[nH]ccc2c1 [Compound 4, Indole-5-methanamine]	0.1%	little or no substrate activity	–	–
NCCc1nnn[nH]1 [Compound 5, 1H-Tetrazole-5-ethanamine]	20%	substrates for GABA-AT	–	–
C=CC(N)CCc1nnn[nH]1 (stereo not drawn) [Compound 8, 1H-Tetrzole-5-(α-vinyl-propanamine)]	–	–	showed time-dependent inhibition	times less efficient (kinact/KI) than vigabatrin ([3]; relative to racemic vigabatrin): 6.6 times; kinact/KI ([3]; time-dependent inhibition): 2.17 M⁻¹ s⁻¹; Ki [3, 5]: 5.6 mM; kinact [3, 5]: 0.0122 s⁻¹
C=CC(N)CCc1nnn(C)n1 (stereo not drawn) [Compound 9, 2-Methyl-2H-tetrazole-5-(α-vinyl-propanamine)]	–	–	Neither 9 nor 10 showed time-dependent inhibition	IC50 [4]: > 10 mM
C=CC(N)CCc1nnnn1C (stereo not drawn) [Compound 10, 1-methyl-1H-tetrazole-5-(α-vinyl-propanamine)]	–	–	Neither 9 nor 10 showed time-dependent inhibition	IC50 [4]: > 10 mM
NCCCC(=O)O [GABA, γ-aminobutyric acid, reference compound]	25%	–	–	–
